Here are results for eleven compounds from patent publication US20240207265A1, “TREATMENT OF CNS DISEASES WITH sGC STIMULATORS” (Tisento Therapeutics Inc., priority 2021, published 2024).

In general, EC50 refers to the concentration giving half of the maximal effect.

The test system of series [1] is sGC enzyme. Nature of the series: cGMP GloSensor cell-based assay, 384-well format (HEK293). Details: species or system human. To be noted: HEK293 GloSensor 40F cGMP cells, 10 μM DETA-NONOate, geometrical mean; read-out: Glo EC50. The text has this:
Human embryonic kidney cells (HEK293) cells expressing GloSensor™ 40F cGMP (Part No: CS182801, Promega) were used to evaluate the activity of test compounds. The luminescent biosensors (engineered luciferase) that were incorporated into these cells detect cGMP formed by the compounds stimulating the sGC enzyme and emit luminescence.
cGMP GloSensor cells were maintained in Dulbecco's Modification of Eagle's Medium (DMEM) supplemented with fetal bovine serum (FBS, 10% final) and hygromycine (200 ug/ml). The day before assay, cells were plated in DMEM with 10% FBS in a 50 μL volume at a density of 1.5×10^4 cells/well in a poly-D-lysine coated 384-well flat white-bottom plate (Corning Cat No 35661). Cells were incubated overnight at 37° C. in a humidified chamber with 5% CO2. The next day, medium was removed and cells were replaced with 40 ul/well of GloSensor™, 2 mM (Promega Cat No E1291). Cells were treated for 90 minutes at 25° C. to allow the substrate to equilibrate in the cells. Test compounds and Diethylenetriamine NONOate (DETA-NONOate) was diluted to 3 mM (20×) in serum-free CO2 independent medium and serially diluted at 4× dilutions to create 5× dose curve from which 10 ul was added to the wells (x μM concentration for test compound solution and 10 μM concentration for DETA-NONOate solution; wherein x is one of the following final concentrations: 30 μM, 7.5 μM, 1.9 μM, 469 nM, 117 nM, 29.3 nM, 7.3 nM, 1.83 nM, 0.46 nM, 0.11 nM, 0.03 nM) For the kinetics studies, luminescense was measured right away for 0.2 sec per well with Envision (Perkin Elmer). For endpoint SAR screening, data were collected after 55 min incubation at room temperature.
Concentration response data were analyzed using a 4-parameter fit (log (agonist) vs. response-variable slope). The EC50 was interpolated from the curve fit and is defined as the concentration at which the compound elicits 50% of its maximal response. When the experiment was carried out multiple times for a given compound, the geometrical mean of all experiments is reported.

Series [2] can be described thus: Rat cerebrospinal fluid (CSF) pharmacokinetics. The series is classed as in vivo. To be noted: male, Sprague-Dawley, rat CSF/unbound plasma. The protocol:
PK in rats was determined following oral dosing. For the oral (PO) experiments, a group of 6 male Sprague-Dawley rats with an indwelling catheter placed in the cisterna magna were used. The PO group was dosed with 3.0, or 10 mg/kg of a compound formulated as a solution in PEG400 or suspension in 0.5% Tween 80 and 0.5% Methylcellulose in water. PO doses were administered by oral gavage and delivered to the stomach using a syringe and gavage tube. Following oral dosage administration, the gavage tube was flushed with approximately 0.5 mL of water to ensure complete delivery of the full dose.
Plasma samples were collected as follows: samples of CSF and blood were collected at 1 hour, 2, and optionally at 4 hours post-dosing. CSF samples (0.05 mL) were collected through the intracisternal catheter. Blood samples (0.25 mL) were collected through tail nick sampling. These samples were kept on ice until processed for plasma. Blood samples were centrifuged at 3200 rpm for 5 minutes at approximately 5° C. within 1 hour of collection. Plasma was directly transferred to individual Eppendorf tubes (0.125 mL). Plug caps were placed on the tubes and the tubes frozen at approximately −70° C. and stored until analysis. Plasma and CSF was collected and analyzed for the presence of a compound.
The compound in question and the internal standard were extracted from plasma by precipitation and from CSF by either precipitation or dilution. Samples were analyzed using liquid chromatography (LC) with tandem mass spectrometric detection (MS/MS) using electrospray ionization. The standard curve ranged from 0.1 to 1000 ng/mL. Results of the compounds described herein in this assay are illustrated in Table G below (for a 10 mg/kg dose and/or 3 mg/kg of the compound). Compound concentrations from several animals were combined to give the geometrical mean at each specific dosage and timepoint.
Kp,uu is defined as the concentration ratio of unbound drug in CSF to unbound drug in plasma. Unbound drug in plasma (or free plasma concentration) is calculated by multiplying the total plasma concentration by the unbound fraction as determined by plasma protein binding. The CSF concentration is then divided by the free plasma concentration to determine the Kp,uu. (See e.g., Di et al., J. Med. Chem., 56, 2-12 (2013))

Take `Cc1cc(F)c(Cc2nc(-c3ncc(F)c(O)n3)cn3ncnc23)cc1F` [Compound I-19, 5-Fluoro-2-(8-(2,5-difluoro-4-methylbenzyl)-[1,2,4]triazolo[1,5-a]pyrazin-6-yl)pyrimidin-4-ol]: the EC50 in series [1] fell in the range of 100 to 1000 nM.

For the compound `Cc1cc(F)c(Cc2nc(-c3ncc(F)c(O)n3)cn3ccnc23)cc1F` [Compound I-14, 5-fluoro-2-(8-(2,5-difluoro-4-methylbenzyl)imidazo[1,2-a]pyrazin-6-yl)pyrimidin-4-ol], in series [1], the EC50 is at most 100 nM. In series [2] (PO 3 mg/kg), this compound registered a Kp uu at 1 h above 3, a Kp uu at 2 h above 3 and a Kp uu at 4 h above 3. In series [2] (PO 10 mg/kg), this compound came in with a Kp uu at 1 h above 3, a Kp uu at 2 h above 3 and a Kp uu at 4 h of 2 to 3.

Regarding `Oc1nc(-c2cn3ncnc3c(Cc3ccccc3F)n2)ncc1F` [Compound I-23], the EC50 in series [1] was in the range of 100 to 1000 nM.

`Oc1nc(-c2cn3ccnc3c(Cc3ccccc3F)n2)ncc1F` [Compound I-21]: in series [1], the EC50 was in the range of 100 to 1000 nM.

With `Oc1nc(-c2cn3c(F)cnc3c(Cc3cc(F)ccc3F)n2)ncc1F` [Compound I-5], in series [1], the concentration for a half-maximal effect (EC50) was at most 100 nM. In series [2] (PO 3 mg/kg), this compound came in with a Kp uu at 1 h of 2 to 3, a Kp uu at 2 h of 2 to 3 and a Kp uu at 4 h of 2 to 3.

`Oc1nc(-c2cn3ccnc3c(Cc3cc(F)ccc3F)n2)ncc1Cl` [Compound I-16, 5-chloro-2-(8-(2,5-difluorobenzyl)imidazo[1,2-a]pyrazin-6-yl)pyrimidin-4-ol]: the EC50 in series [1] is at most 100 nM. In series [2] (PO 3 mg/kg), the Kp uu at 1 h is above 3, the Kp uu at 2 h is above 3 and the Kp uu at 4 h is above 3.

As to `Oc1nc(-c2cn3ccnc3c(Cc3ccccc3)n2)ncc1F` [Compound I-2, 2-(8-Benzylimidazo[1,2-a]pyrazin-6-yl)-5-fluoropyrimidin-4-ol], the EC50 in series [1] lay in the range of 100 to 1000 nM.

On to `Cc1cc(F)c(Cc2nc(-c3ncc(F)c(O)n3)cn3c(F)cnc23)cc1F` [Compound I-18], for which, in series [1], the EC50 is at most 100 nM. Also, in series [2] (PO 3 mg/kg), the Kp uu at 1 h lay within 1 to 2, the Kp uu at 2 h is 1 to 2 and the Kp uu at 4 h was 1 to 2.

With `Oc1nc(-c2cn3ccnc3c(Cc3cccc(F)c3F)n2)ncc1F` [Compound I-4, 2-(8-(2,3-Difluorobenzyl)imidazo[1,2-a]pyrazin-6-yl)-5-fluoropyrimidin-4-ol], in series [1], the EC50 was in the range of 100 to 1000 nM. Also, in series [2] (PO 3 mg/kg), the Kp uu at 1 h is at most 1, the Kp uu at 2 h lay in the range of 1 to 2 and the Kp uu at 4 h lay in the range of 1 to 2.

In the case of `Cc1cc(F)c(Cc2nc(-c3nccc(O)n3)cn3ccnc23)cc1F` [Compound I-15, 2-(8-(2,5-difluoro-4-methylbenzyl)imidazo[1,2-a]pyrazin-6-yl)pyrimidin-4-ol], the EC50 in series [1] was in the range of 100 to 1000 nM.

Regarding `Oc1nc(-c2cn3ccnc3c(Cc3cc(F)ccc3F)n2)ncc1F` [Compound I-20, 5-fluoro-2-(8-(2,5-difluorobenzyl)imidazo[1,2-a]pyrazin-6-yl)pyrimidin-4-ol], the EC50 in series [1] was at most 100 nM. Further, in series [2] (PO 3 mg/kg), the Kp uu at 1 h fell in the range of 2 to 3, the Kp uu at 2 h lay in the range of 2 to 3 and the Kp uu at 4 h was 2 to 3. In series [2] (PO 10 mg/kg), the Kp uu at 1 h was in the range of 1 to 2, the Kp uu at 2 h lay in the range of 2 to 3 and the Kp uu at 4 h was in the range of 2 to 3.
